# In patent US20070037752A1, “Novel alanyl-amino peptidase inhibitors for functionally influencing different cells and treating immunological, inflammatory, neuronal, and other diseases” (priority 2003, published 2007):
# System: female Balb/c mice
# Experiment: Dextran sulfate-induced colitis, disease score
# Type: in vivo
# Conditions: 10 μg single inhibitor i.p., three days from day 5, score on day 7; insignificant
# Description: Therapeutic Effect of the Combined Inhibition of the Alanyl Aminopeptidases and of Enzymes Having an Analogous Effect as Well as of Dipeptidyl Peptidase IV and of Enzymes Having an Analogous Effect on the Dextran Sulfate-Induced Colitis in Mice (Animal Model of Chronic Inflammatory Intestinal Diseases)
# An inflammation relating predominantly to the colon (equivalent to the disease of human Colitis ulcerosa) was induced by an administration of 3% sodium dextran sulfate dissolved in the drinking water of female Balb/c mice having an age of 8 weeks. […] The peptidase inhibitors (or phosphate-buffered saline as a placebo) were administered intraperitoneally from day 5 on for three successive days. The degree of the disease was determined in accordance with an acknowledged evaluation system (score). The following parameters were considered when determining the score: Consistency of the excrements (solid=0 points (pts.); pasty=2 pts.; liquid/like diarrhea=4 pts.); detection of blood in the excrements (no blood=0 pts.; occult blood=2 pts.; evident=4 pts.); loss of weight (0-5%=0 pts.; 5 to 10%=1 pts.; 10-15%=2 pts.; 15-20%=3 pts.; >20%=4 pts.). Healthy animals have a score value of 0 pts.; the maximum value are 12 pts. From 10 pts. on, the disease is lethal. In the course of the disease, the score value increased due to the change of the excrement parameters. […]
row,Structure (SMILES),reduction of the heaviness of the disease (colitis score) [%]
1,CCCCC[C@H](CC(=O)NO)C(=O)N[C@H](C(=O)N1CCC[C@H]1CO)C(C)C [Actinonine],−16.5
2,N[C@@H](CCCCNC(=O)OCc1ccc([N+](=O)[O-])cc1)C(=O)N1CCCC1 [Lys[Z(NO2)]pyrrolidide],−12.3

# Biological target: alanyl aminopeptidases (APN) (Homo sapiens, UniProt P15144)
# Experiment: Inhibition of alanyl aminopeptidase enzymatic activity, fluorogenic substrate (Ala)2-rhodamine 110
# Type: biochemical
# Conditions: Table 13; read-out: IC50APN
# Description: The inhibition characteristics measured are referred to as IC-50 values or ID50 values (the latter marked with “*”) for said enzyme. The enzymatic activity was determined by means of the fluorogenic substrate/product (Ala)2-rhodamine 110.
# Sequence of alanyl aminopeptidases (APN) (P15144 whole entry, species assumed): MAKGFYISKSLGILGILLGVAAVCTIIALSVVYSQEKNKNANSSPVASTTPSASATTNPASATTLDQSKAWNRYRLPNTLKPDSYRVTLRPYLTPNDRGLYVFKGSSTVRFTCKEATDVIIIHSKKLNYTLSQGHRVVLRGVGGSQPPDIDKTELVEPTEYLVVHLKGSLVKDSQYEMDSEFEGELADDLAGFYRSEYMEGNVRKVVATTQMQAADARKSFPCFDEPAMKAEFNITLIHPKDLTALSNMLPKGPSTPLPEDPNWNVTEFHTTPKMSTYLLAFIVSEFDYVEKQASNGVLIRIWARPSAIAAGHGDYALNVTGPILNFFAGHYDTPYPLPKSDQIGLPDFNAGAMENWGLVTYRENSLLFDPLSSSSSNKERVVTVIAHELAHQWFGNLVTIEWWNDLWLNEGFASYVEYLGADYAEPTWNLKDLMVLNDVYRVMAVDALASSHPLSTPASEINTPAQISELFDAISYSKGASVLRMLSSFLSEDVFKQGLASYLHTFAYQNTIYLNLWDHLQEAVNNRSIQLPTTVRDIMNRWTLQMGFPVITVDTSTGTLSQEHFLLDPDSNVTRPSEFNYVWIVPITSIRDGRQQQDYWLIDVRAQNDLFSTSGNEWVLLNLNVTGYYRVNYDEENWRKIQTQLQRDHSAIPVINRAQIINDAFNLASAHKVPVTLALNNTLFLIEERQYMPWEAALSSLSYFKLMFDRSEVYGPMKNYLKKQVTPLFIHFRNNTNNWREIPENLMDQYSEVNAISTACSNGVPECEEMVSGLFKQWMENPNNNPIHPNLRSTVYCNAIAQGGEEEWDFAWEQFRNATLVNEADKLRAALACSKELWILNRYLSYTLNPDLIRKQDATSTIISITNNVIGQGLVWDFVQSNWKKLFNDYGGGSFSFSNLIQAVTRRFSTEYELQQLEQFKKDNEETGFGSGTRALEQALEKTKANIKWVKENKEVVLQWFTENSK
row,IC50 [µM],Structure (SMILES)
1,32,CCCOC(=O)c1cc(-c2ccc(/C=C3/C(=O)N(CC(C)O)C(=O)C(C#N)=C3C)o2)ccc1Cl (stereo not drawn) [A13.017]
2,32.4,CC1=C(C#N)C(O)=NC(=O)/C1=C/c1ccc(-c2ccc(Cl)cc2Cl)o1 [A13.018]
3,33.9,Cc1ccccc1NC(=O)C1C(c2cccs2)C(C#N)=C(SCC(=O)Nc2ccc(Br)cc2)NC1(C)O (stereo not drawn) [A13.019]
4,41,CCOC(=O)c1cc(-c2ccc(/C=C3\C(=O)N(CCCO)C(=O)C(C#N)=C3C)o2)ccc1Cl [A13.020]
5,47.2,CC1=C(C#N)C(=O)N(CC(C)O)C(=O)/C1=C/c1ccc(-c2ccc(Br)cc2)o1 (stereo not drawn) [A13.021]
6,51.3,CC1CCc2c(sc(NC(=O)C(C(F)(F)F)C(F)(F)F)c2C#N)C1 (stereo not drawn) [A13.022]
7,54,CCCOC(=O)c1cc(-c2ccc(/C=C3\C(=O)N(CCO)C(=O)C(C#N)=C3C)o2)ccc1Cl [A13.023]
8,125,CC1=C(C#N)C(=O)N(CCO)C(=O)/C1=C\c1ccc(-c2ccc(C)c(Cl)c2)o1 [A13.024]

# Same assay, conditions: Table 14
row,Structure (SMILES),IC50APN
1,COC(=O)C1=C(N)N2C(=O)CSC2=C(C(=O)OC)C1 [A14.001],"“positively very highly active”, means beyond measurement- scale”"

# Same assay, conditions: Table 14; read-out: IC50APN
row,IC50 [µM],Structure (SMILES)
1,5.9,COC(=O)C1=C(N)N2C(=O)CSC2=C(C(=O)OC(C)C)C1 [A14.002]
2,23.1,CCOC(=O)C1=C2SCC(=O)N2C(N)=C(C#N)C1 [A14.003]

# System: female Balb/c mice
# Experiment: Ovalbumine-induced asthma bronchiale, pulmonal function (EF50) and eosinophilia
# Type: in vivo
# Conditions: i.p. 0.1 mg of each inhibitor, days 28-35; FIG. 3 A
# Description: Therapeutic effect of the combined inhibition of alanyl aminopeptidases and of enzymes having an analogous effect as well as of dipeptidyl peptidase IV and of enzymes having an analogous effect on the ovalbumine-induced asthma bronchiale ib mice (animal model of human asthma bronchiale).
# Female Balb/c mice were sensitized for the antigen ovalbumine capable of inducing asthma bronchiale by an intreperitoneal administration of 10 μg ovalbumine on the days 0, 14 and 21. On day 27/28, the animals received a boostering dose of ovalbumine by inhalation [vD3]. After an intreperitoneal administration of the peptidase inhibitors on the days 28-35, there was effected an intranasal ovalbumine challenge on day 35, as well as a check of the allergic premature reaction via the pulmonal function. There were measured: the average expiratory flux (EF50), the tidal volume, the respiration rate and the minute volume as well as the number of eosinophilic granulocytes in the bronchoalveolar lavage.
# 8 to 10 animals were used per experimental group. By way of example, in FIG. 3 A, there is summarized the effect of the peptidase inhibitors on the reduction of the EF50 value. […] Group E represents animals which were not sensitized by OVA, but which were subjected—beyond that—all procedures to which the animal groups A to D were subjected.
row,Structure (SMILES),effect on the reduction of the EF50 value (pulmonal function)
1,CCCCC[C@H](CC(=O)NO)C(=O)N[C@H](C(=O)N1CCC[C@H]1CO)C(C)C [Actinonine],showed a therapeutic effect
2,N[C@@H](CCCCNC(=O)OCc1ccc([N+](=O)[O-])cc1)C(=O)N1CCCC1 [Lys[Z(NO2)]pyrrolidide],showed a therapeutic effect
